Measured values reported in patent US11713305B2, “Zinc sensors for in vivo imaging of beta-cell function by MRI” (The Board of Regents of the University of Texas System, priority 2017, dated 2023).

Experiments:
[1] = 17O NMR of Gd complexes (water exchange, SBM fitting); format: physicochemical; set-up: A/ℏ: unit not given here; settings: for hyperfine coupling constant (AO/ℏ): 17O NMR fit, underlined values fixed during fitting; for water exchange rate kex^310 / ΔH‡ / ER / τRO^298 / A/ℏ / EV / Δ^2 / τV^298: 17O NMR; for water exchange rate kex^310 / ΔH‡: 9.4 T; for water exchange rate kex^310: 310 K; for ΔH‡ / ER / τRO^298 / A/ℏ / EV / Δ^2 / τV^298: best-fit; for ΔH‡: [Gd^3+]=25 mM; for ER: activation energy of rotational correlation time; for τRO^298: rotational correlation time; for A/ℏ: scalar coupling constant; for EV / Δ^2 / τV^298: sometimes fixed; for water exchange rate kex: slowest exchange rates, in 1/s; for faster water exchange rates: compared with GdL1 and GdL4; for empirical constant describing the outer sphere contribution to the 17O chemical shift, Cos: fitted
Description: Given that the rate of water exchange (kex) in these complexes is likely the limiting factor in determining the magnitude of r1 increase when the GdL-Zn complexes bind to HSA, further temperature dependent ^17O NMR studies were performed to evaluate the water exchange rates. A simultaneous analysis of ^17O reduced T1, T2, and chemical shift (Δωr) data were analyzed (Powell et al., 1996; Gonzalez et al., 1994; Martins et al., 2013; Martins et al., 2015) to estimate the q values, kex, and hyperfine coupling constants for GdL1-5.
^17O NMR experiments were performed at 9.4 T on a Bruker AVANCE III NMR spectrometer. The temperature was regulated by air flow controlled by a Bruker VT unit. The samples ([Gd^3+]=25 mM; [Dy^3+]=1 mM) were prepared in ^17O enriched water (10%) with the pH being maintained at 7.4 with 100 mM Tris buffer. The sample was loaded into a 18 μL spherical bulb (Wilmad-Lab Glass, Vineland, NJ) and placed inside a 5 mm NMR tube containing 400 μL of water to eliminate any susceptibility effects. Longitudinal relaxation rates (1/T1) were obtained by the inversion recovery method and transverse relaxation rates (1/T2) were obtained by the Carr-Purcell—Meiboom—Gill spin echo technique. The acidified water (pH=3.0) containing 10% enriched ^17O water was used as a reference for the measurements. For the DyL4 complexes (no HSA and with HSA+Zinc), acidified water solutions and 1 mM LaL4+3 mM HSA with zinc (1:1) were used as the corresponding references. The corresponding fittings were performed with the Scientist 3.0 software (Micromath®).
^17O NMR data have been analyzed within the framework of Solomon-Bloembergen-Morgan theory.
From the measured ^17O NMR relaxation rates and angular frequencies of the paramagnetic solutions, 1/T1, 1/T2 and ω, and of the acidified water reference, a1/T1A, 1/T2A and ωA, one can calculate the reduced relaxation rates and chemical shifts, 1/7′2, and Δωr, which may be written in Equations (A1)-(A3), where, 1/T1m, 1/T2m, is the relaxation rate of the bound water and Awn, is the chemical shift difference between bound and bulk water molecules, τm is the mean residence time or the inverse of the water exchange rate kex and Pm is the mole fraction of the bound water (Swift and Connick, 1962; Zimmerman and Brittin, 1957).
The outer sphere contributions to the ^17O relaxation rates 1/T1OS and 1/T2OS are being neglected according to previous studies (Micskei et al., 1993). Therefore, Equations (A1-A2) can be further simplified to Equations (A4) and (A5): […]
The exchange rate is supposed to obey the Eyring Equation. In Equation (A6) ΔS^‡ and ΔH^‡ are the entropy and enthalpy of activation for the water exchange process, and kex^298 is the exchange rate at 298.15 K.
In the transverse relaxation, the scalar contribution, 1/T2s, is the most relevant [Equation (A7)]. 1/τsl is the sum of the exchange rate constant and the electron spin relaxation rate [Equation (A8)].
The ^17O longitudinal relaxation rates in Gd^3+ solutions are the sum of the contributions of the dipole-dipole (dd) and quadrupolar (q) mechanisms as expressed by Equations (A11-A13) for non-extreme narrowing conditions, where γS is the electron and γ1 is the nuclear gyromagnetic ratio (γS=1.76×10^11 rad s^−1 T^−1, γ1=˜3.626×107 rad s^−1 T^−1), rGdO is the effective distance between the electron charge and the ^17O nucleus, I is the nuclear spin (5/2 for ^17O), x is the quadrupolar coupling constant and η is an asymmetry parameter:
In Equation (A3) the chemical shift of the bound water molecule, Δωm, depends on the hyperfine interaction between the Gd^3+ electron spin and the ^17O nucleus and is directly proportional to the scalar coupling constant, A/h, as expressed in Equation (A12) (Brittain and Desreux, 1984).
The isotopic Landé g factor is equal to 2.0 for the Gd^3+, B represents the magnetic field, and kB is the Boltzmann constant. […]

mouse pancreas = test: In vivo MR imaging of glucose stimulated insulin secretion (GSIS) in the mouse pancreas; set-up: species or system C57B1/6 mice; settings: for T1-weighted MR image enhancement in pancreatic tissues and kidneys: over the first 10-15 min after injection
Description: Both phases of insulin secretion are considered essential, but the early RRP phase that is thought to be the first signal reduced during the development of type 2 diabetes (Komatsu et al., 2013; Hosker et al., 1989). In principle, both phases of insulin secretion should be detectable by MRI if enough sensor is present in the extracellular space during the time-course of these events. Biphasic GSIS was not detected by MRI in previous experiments using the first generation Zn^2+ sensors with a high affinity for Zn^2+ but we hypothesized that GSIS may be more easily detected using these second-generation agents having a much lower affinity for Zn^2+. To test this, dynamic MRI scans were collected after administering either GdL1, GdL2, GdL3 or GdL4 to C57B1/6 mice via a tail vein (0.07 mmol/kg). Nearly simultaneously with agent injection, a bolus (50 μL) of 20% w/v glucose was administered IP to stimulate secretion of insulin.
All animal experiments were performed in accordance with guidelines set by the UT Southwestern Institutional Animal Care and Use Committee (IACUC). Male C57b1/6 mice were fasted for at least 12 hours before imaging experiments. The animals were anaesthetized with isofluorane and catheterized via the tail vein. Once the animals were secured inside a 38 mm volume coil, the pancreas was positioned in the center of the 9.4 T Varian MRI scanner. Two 3D T1-weighted gradient echo pre-injection scans were obtained (TE/TR=1.69/3.34 ms, NEX8, Matrix=128×128 ×128). 70 μl of 20 mM contrast agent were injected i.v. and 50 μl of 20% w/v D-glucose were injected intraperitoneally and consecutive 3D T1-weighted scans were obtained sequentially to monitor signal enhancement in the pancreas. Identification of the pancreas was accomplished by locating the tissues surrounded by the spleen, stomach, and kidneys. A total of 3 animals were scanned per group and images were quantified and analyzed using ImageJ (National Institutes of Health, Bethesda, Md.). The signal intensities from ROIs of the tip of the pancreas were measured before, at every ˜3-4 minutes post D-glucose injection over 30 minutes total. The values were normalized to the signal intensity obtained from a water phantom placed on the mouse abdomen. Contrast enhancement was calculated using the formula
[formula] Statistical analysis was performed by comparing the mean values using a two-tailed t-test. Statistical difference was evaluated using t-scores and p-values at a 95 and 99% confidence level.

hyperfine coupling constant (AO/ℏ) [1] | ΔH‡ [1] | ER [1] | τRO^298 [1] | A/ℏ [1] | EV [1] | Δ^2 [1] | τV^298 [1] | empirical constant describing the outer sphere contribution to the 17O chemical shift, Cos [1] | SMILES | water exchange rate kex^310 [1] | water exchange rate kex [1] | T1-weighted MR image enhancement in pancreatic tissues and kidneys (mouse pancreas; 0.07 mmol/kg i.v., glucose IP) | pancreatic response at 3 minutes (FIG. 7A) (mouse pancreas; post-glucose stimulation) | faster water exchange rates [1] | dynamic images: phases of insulin secretion detected (mouse pancreas; 0.07 mmol/kg i.v., glucose IP, n=3) | Area under the curve (AUC) t=11−19 minutes post-glucose stimulation (FIG. 7C) (mouse pancreas; compared to control Gd-HPDO3A and GdL1) | enhancement profile from pancreas ROI normalized to external phantom (FIG. 7B) (mouse pancreas; mouse, in vivo) | pancreatic response at 15 minutes (FIG. 7A) (mouse pancreas; post-glucose stimulation)
−4.0 ± 0.2 ×10^6 rad/s | 10.6 ± 0.239 kcal/mol | 4.95 ± 0.048 kcal/mol | 280 ± 11 ps | −4.0 ± 0.1 | 0.263 ± 0.024 kcal/mol | 0.10 ± 0.01 10^20 s^−2 | 4.6 ± 0.1 ps | – | O=C(O)CN1CCN(CC(=O)O)CCN(CC(=O)NCCN(Cc2ccccn2)Cc2ccccn2)CCN(CC(=O)O)CC1 [GdL1] | 2.9 ± 0.1 ×10^6 s^−1 | ~3 ×106 5-1 | significant image enhancements | enhance the pancreas | – | – | – | – | –
−3.7 ± 0.2 ×10^6 rad/s | 10.9 ± 0.263 kcal/mol | 4.09 ± 0.048 kcal/mol | 320 ± 11 ps | −3.7 ± 0.2 | 0.263 ± 0.0024 kcal/mol | 0.13 ± 0.01 10^20 s^−2 | 7.1 ± 0.1 ps | 0.1 | O=C(O)CN1CCN(CCC(=O)NCCN(Cc2ccccn2)Cc2ccccn2)CCN(CC(=O)O)CCN(CC(=O)O)CC1 [GdL2] | 100 ± 1 ×10^6 s^−1 | – | significant image enhancements | – | ~30 fold | – | – | – | –
−3.7 ×10^6 rad/s | 11.2 ± 0.239 kcal/mol | 4.11 ± 0.024 kcal/mol | 320 ps | −3.7 | 0.263 kcal/mol | 0.13 10^20 s^−2 | 7.1 ps | 0.1 | O=C(O)CCN1CCN(CC(=O)O)CCN(CC(=O)NCCN(Cc2ccccn2)Cc2ccccn2)CCN(CC(=O)O)CC1 [GdL3] | 90 ± 0.2 ×10^6 s^−1 | – | significant image enhancements | – | ~30 fold | – | – | – | –
−4.0 ± 0.2 ×10^6 rad/s | 3.61 ± 0.359 kcal/mol | 4.16 ± 0.048 kcal/mol | 350 ± 12 ps | −4.0 ± 0.4 | 0.239 kcal/mol | 0.16 10^20 s^−2 | 11 ps | – | O=C(O)CN1CCN(CC(=O)O)CCN(CC(=O)NCCN(CCc2ccccn2)Cc2ccccn2)CCN(CC(=O)O)CC1 [GdL4] | 3.0 ± 0.1 ×10^6 s^−1 | ~3 ×106 5-1 | – | enhance the pancreas | – | both early phase (3-4 min) and late phase (13-17 min) insulin secretion | improved bi-phasic profile | distinct bi-phasic profile | shows second-phase enhancement
−3.9 ± 0.3 ×10^6 rad/s | 10.9 ± 0.311 kcal/mol | 3.59 kcal/mol | 305 ± 10 ps | −3.9 ± 0.2 | 0.239 kcal/mol | 0.67 ± 0.2 10^20 s^−2 | 14 ± 0.2 ps | – | O=C(O)CN1CCN(CCC(=O)NCCN(CCc2ccccn2)Cc2ccccn2)CCN(CC(=O)O)CCN(CC(=O)O)CC1 [GdL5] | 100 ± 1 ×10^6 s^−1 | – | – | – | ~30 fold | – | – | – | –
